Structures are written as SMILES. Read-outs that look alike come from different tables or passages of the source.

The record followed here is patent US11390631B1, “Benzodiazepine derivatives as RSV inhibitors” (priority 2015, dated 2022).

In this assay the test system is Human RSV-A (“Long” strain). Description: RSV-A assay: inhibition of cytopathic effect in Hep-2 cells, ATPlite readout. Type of assay: cell-based, Human respiratory syncytial virus (HRSV). To be noted: read-out: Human RSV-A (“Long” strain) EC50. The method, boiled down:
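Cytopathic-effect protection was read as ATP content (ATPlite luminescence) after a 5-day incubation. Setup: Hep-2 cells at 8,000 per well, RSV-A Long at MOI 0.1, 2-fold serial compound dilutions in duplicate. Cytotoxicity (CC50) was measured on an identical uninfected plate run in parallel.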

[1] abbreviates: human respiratory syncytial virus, HEp-2, 120 h.
The mark [2] stands for this setting: Hep-2 cells, MOI 0.1, 5-day incubation, ATPlite.

As for `COCCn1ccc2cccc(-c3nnc(N[C@H]4N=C(c5ccccc5)c5ccccc5NC4=O)o3)c21` [Example 426], the concentration for a half-maximal effect (EC50) under setting [1] was > 800 nM.
In the case of `O=C1Nc2ccccc2C(c2ccccc2)=N[C@@H]1Nc1nnc(-c2nc(-c3ccccc3F)sc2N2CCOCC2)o1` [Example 427], the EC50 under setting [1] was < 400 nM.
Still for that read-out and setting: next, `O=C1Nc2ccccc2C(c2ccccc2)=N[C@@H]1Nc1nnc(-c2nc(-c3ccc(F)cc3)sc2N2CCOCC2)o1` [Example 428]: < 400 nM; `O=C1Nc2ccccc2C(c2ccccc2)=N[C@@H]1Nc1nnc(-c2cn(C3CCC3)nc2N2CCOCC2)o1` [Example 430]: < 400 nM; `O=C1Nc2ccccc2C(c2ccccc2)=N[C@@H]1Nc1nnc(-c2cn(-c3ccccn3)nc2N2CCOCC2)o1` [Example 431]: < 400 nM.
The same measure, in the same setting: next, `Cc1cc(-c2nnc(N[C@H]3N=C(c4ccccc4)c4ccccc4NC3=O)o2)n(C2CCOCC2)n1` [Example 432]: > 800 nM; `O=C1Nc2ccccc2C(c2ccccc2)=N[C@@H]1Nc1nnc(-c2nc3ccccc3nc2N2CCOCC2)o1` [Example 433]: < 400 nM.
In the case of `O=C1Nc2ccccc2C(c2ccccc2)=N[C@@H]1Nc1nnc(-c2cc3ccccc3nc2N2CCOCC2)o1` [Example 434], the EC50 under setting [1] was < 400 nM.
Still for that read-out and setting: in the case of `N#Cc1ccc2nccc(-c3nnc(N[C@H]4N=C(c5ccccc5)c5ccccc5NC4=O)o3)c2c1` [Example 435] it was > 800 nM; in that of `CO[C@@H]1COC[C@H]1Nc1cc(C(F)(F)F)cnc1-c1nnc(N[C@H]2N=C(c3ccccc3)c3ccccc3NC2=O)o1` [Example 436], < 400 nM; in that of `CC(C)(O)c1nc(-c2nnc(N[C@H]3N=C(c4ccccc4)c4ccccc4NC3=O)o2)c(N2CCOCC2)s1` [Example 437], < 400 nM.
Still for that read-out and setting: next, `COCCN1CCCn2ncc(-c3nnc(N[C@H]4N=C(c5ccccc5)c5ccccc5NC4=O)o3)c21` [Example 438]: 400 to 800 nM; `COC1C2CN(c3cc(C(F)(F)F)cnc3-c3nnc(N[C@H]4N=C(c5ccccc5)c5ccccc5NC4=O)o3)CC21` (stereo partly drawn) [Example 439]: > 800 nM.
`O=C1Nc2ccccc2C(c2ccccc2)=N[C@@H]1Nc1nnc(-c2cn(-c3ccc(C(F)(F)F)cn3)nc2N2CCOCC2)o1` [Example 440]: the EC50 under setting [1] fell in the range of 400 to 800 nM.
On the same count and under the same terms, next, `N#Cc1ccn2ncc(-c3nnc(N[C@H]4N=C(c5ccccc5)c5ccccc5NC4=O)o3)c2c1` [Example 441]: > 800 nM.
`O=C1Nc2ccccc2C(c2ccccc2)=N[C@@H]1Nc1ncc(-c2ncc(C(F)(F)F)cc2N2CCOCC2)o1` [Example 442]: the EC50 under setting [2] was < 400 nM.
Still for that read-out and setting: in the case of `O=C1Nc2ccccc2C(c2ccccc2)=N[C@@H]1Nc1nnc(-c2cn(-c3ccc(C(F)(F)F)nc3)nc2N2CCOCC2)o1` [Example 444] it was < 400 nM; in that of `O=C1Nc2ccccc2C(c2ccccc2)=N[C@@H]1Nc1nnc(-c2cn(CC3CC3)nc2N2CCOCC2)o1` [Example 446], < 400 nM; in that of `O=C1Nc2ccccc2C(c2ccccc2)=N[C@H]1Nc1nnc(-c2cn(CC3CC3)nc2N2CCOCC2)o1` [Example 447], 400 to 800 nM.
Take `O=C1Nc2ccccc2C(c2ccccc2)=NC1Nc1nnc(-c2cn(-c3ccc(F)cn3)nc2N2CCOCC2)o1` (stereo not drawn) [Example 448]: the EC50 under setting [1] was < 400 nM.
On the same count and under the same terms, next, `COCc1ccn2ncc(-c3nnc(N[C@H]4N=C(c5ccccc5)c5ccccc5NC4=O)o3)c2c1` [Example 449]: > 800 nM; `O=C1Nc2ccccc2C(c2ccccc2)=NC1Nc1nnc(-c2ncc(C(F)(F)F)cc2CCO)o1` (stereo not drawn) [Example 450]: > 800 nM; `COC[C@@H](C)Nc1sc(C(F)(F)F)nc1-c1nnc(N[C@H]2N=C(c3ccccc3)c3ccccc3NC2=O)o1` [Example 451]: 400 to 800 nM.
Still for that read-out and setting: next, `CO[C@@H](C)CNc1sc(C(F)(F)F)nc1-c1nnc(N[C@H]2N=C(c3ccccc3)c3ccccc3NC2=O)o1` [Example 452]: < 400 nM.
Take `O=C1Nc2ccccc2C(c2ccccc2)=N[C@@H]1Nc1nnc(-c2nc(C(F)(F)F)sc2C2=CCOCC2)o1` [Example 453]: under setting [1], the EC50 is < 400 nM.
The same measure, in the same setting: next, `O=C1Nc2ccccc2C(c2ccccc2)=N[C@@H]1Nc1nnc(-c2nc(C(F)(F)C(F)(F)F)sc2N2CCOCC2)o1` [Example 454]: < 400 nM.
Turning to `O=C1Nc2ccccc2C(c2ccccc2)=N[C@@H]1Nc1nnc(-c2nc(C3(O)CCC3)sc2N2CCOCC2)o1` [Example 455], the EC50 under setting [1] was < 400 nM.
On the same count and under the same terms, in the case of `COC[C@H]1CCCN1c1sc(C(F)(F)F)nc1-c1nnc(N[C@H]2N=C(c3ccccc3)c3ccccc3NC2=O)o1` [Example 456] it was > 800 nM.
Still for that read-out and setting: in the case of `COC[C@@H]1CCCN1c1sc(C(F)(F)F)nc1-c1nnc(N[C@H]2N=C(c3ccccc3)c3ccccc3NC2=O)o1` [Example 457] it was > 800 nM.
With `CCOC1(c2nc(-c3nnc(N[C@H]4N=C(c5ccccc5)c5ccccc5NC4=O)o3)c(N3CCOCC3)s2)CCC1` [Example 458], the EC50 under setting [1] is < 400 nM.
Still for that read-out and setting: in the case of `CC(C)(c1nc(-c2nnc(N[C@H]3N=C(c4ccccc4)c4ccccc4NC3=O)o2)c(N2CCOCC2)s1)N1CCOCC1` [Example 459] it was < 400 nM; in that of `O=C1Nc2ccccc2C(c2ccccc2)=N[C@@H]1Nc1nnc(-c2ncc(C(F)F)cc2N2CCOCC2)o1` [Example 461], < 400 nM; in that of `O=C1Nc2ccccc2C(c2ccccc2)=N[C@@H]1Nc1cc(-c2ccccc2)cnn1` [Example 462], > 800 nM.
Still for that read-out and setting: in the case of `O=C1Nc2ccccc2C(c2ccccc2)=NC1Nc1cc(N2CCOCC2)cnn1` (stereo not drawn) [Example 463] it was > 800 nM; in that of `O=C1Nc2ccccc2C(c2ccccc2)=N[C@@H]1Nc1nnc(-c2ncc(C(F)(F)F)cc2N[C@@H]2CCOC2)o1` [Example 464], < 400 nM; in that of `Cc1nsc(N2CCOCC2)c1-c1nnc(N[C@H]2N=C(c3ccccc3)c3ccccc3NC2=O)o1` [Example 465], 400 to 800 nM.
The same measure, in the same setting: next, `O=C1Nc2ccccc2C(c2ccccc2)=N[C@@H]1Nc1nnc(-c2ncc(C(F)(F)F)cc2N2CCOc3ccccc32)o1` [Example 468]: > 800 nM; `O=C1Nc2ccccc2C(c2ccccc2)=N[C@@H]1Nc1nnc(-c2ncc(C(F)(F)F)cc2NC2COC2)o1` [Example 469]: < 400 nM; `O=C1Nc2ccccc2C(c2ccccc2)=N[C@@H]1Nc1nnc(-c2ncc(C(F)(F)F)cc2N[C@H]2CCOC2)o1` [Example 470]: > 800 nM.
For the compound `O=C1Nc2ccccc2C(c2ccccc2)=N[C@@H]1Nc1nnc(-c2ccsc2N2CCOCC2)o1` [Example 471], the EC50 under setting [1] was < 400 nM.
As to `COCCNc1sccc1-c1nnc(N[C@H]2N=C(c3ccccc3)c3ccccc3NC2=O)o1` [Example 472], the EC50 under setting [1] is > 800 nM.
As to `COCCNc1sc(C(F)(F)F)nc1-c1nnc(N[C@H]2N=C(c3ccccc3)c3ccccc3NC2=O)o1` [Example 473], under setting [1], the EC50 is < 400 nM.
The same measure, in the same setting: next, `O=C1Nc2ccccc2C(c2ccccc2)=N[C@@H]1Nc1nnc(-c2nc(C(F)(F)F)sc2N[C@@H]2CCOC2)o1` [Example 474]: < 400 nM.
Regarding `O=C1Nc2ccccc2C(c2ccccc2)=N[C@@H]1Nc1nnc(-c2nc(C(F)(F)F)sc2NCC2COC2)o1` [Example 475], the EC50 under setting [1] fell in the range of 400 to 800 nM.
Take `O=C1Nc2ccccc2C(c2ccccc2)=N[C@@H]1Nc1nnc(-c2oc3cc(F)ccc3c2N2CCOCC2)o1` [Example 476]: the EC50 under setting [1] was in the range of 400 to 800 nM.
Regarding `O=C1Nc2ccccc2C(c2ccccc2)=N[C@@H]1Nc1nnc(-c2oc3cccc(F)c3c2N2CCOCC2)o1` [Example 477], the concentration giving a half-maximal response (EC50) under setting [1] was < 400 nM.
Still for that read-out and setting: in the case of `CC1(c2nc(-c3nnc(N[C@H]4N=C(c5ccccc5)c5ccccc5NC4=O)o3)c(N3CCOCC3)s2)CCC1` [Example 478] it was < 400 nM; in that of `COCCCc1sc(C)nc1-c1nnc(N[C@H]2N=C(c3ccccc3)c3ccccc3NC2=O)o1` [Example 479], > 800 nM.
Consider `COC[C@@H]1C[C@H]1c1cc(C(F)(F)F)cnc1-c1nnc(N[C@@H]2N=C(c3ccccc3)c3ccccc3NC2=O)o1` [Example 481], for which the EC50 under setting [2] was > 800 nM.
Same read-out and setting: in the case of `COC[C@H]1C[C@@H]1c1cc(C(F)(F)F)cnc1-c1nnc(N[C@H]2N=C(c3ccccc3)c3ccccc3NC2=O)o1` [Example 482] it was > 800 nM.
Consider `COC[C@H]1C[C@@H]1c1cc(C(F)(F)F)cnc1-c1nnc(N[C@@H]2N=C(c3ccccc3)c3ccccc3NC2=O)o1` [Example 483], for which the EC50 under setting [2] was > 800 nM.
As to `O=C1Nc2ccccc2C(c2ccccc2)=N[C@@H]1Nc1nnc(-c2cn(CC(F)(F)F)nc2N2CCOCC2)o1` [Example 488], the EC50 under setting [2] is < 400 nM.
On the same count and under the same terms, in the case of `O=C1Nc2ccccc2C(c2ccccc2)=N[C@H]1Nc1nnc(-c2cn(CC(F)(F)F)nc2N2CCOCC2)o1` [Example 489] it was > 800 nM.
As for `O=C1Nc2ccccc2C(c2ccccc2)=N[C@@H]1Nc1nnc(-c2nc(C3(C(F)(F)F)CCC3)sc2N2CCOCC2)o1` [Example 490], the EC50 under setting [1] is < 400 nM.
